Experiments:
Type in all cases: cell-based
[1] = test system: alpha-smooth muscle actin (α-SMA); test: Inhibition of TGF-β induced expression of alpha-smooth muscle actin (α-SMA) in CFSC cells (western blot); conditions: compound at 10 μM, TGF-β (10 ng/mL), 24 hours, band intensity vs TGF-β only
How it was run: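 CFSC hepatic stellate cells in serum-free DMEM treated 24 h at 37 °C with compound at 10 μM plus TGF-β (10 ng/mL). α-SMA measured by Western blot with β-actin, ECL detection, densitometry. Percent inhibition is decrease in band intensity versus TGF-β-only cells.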

[2] = test system: MDA-MB-231 (breast cancer); test: Antiproliferative activity (CCK-8 cell viability), MDA-MB-231; conditions: Homo sapiens, 72 h; for inhibition at 3.3 µM: Compound concentration: 3.3 μM; for inhibition at 3.3 µM / inhibition at 10 µM: read-out: Antiproliferative activity in cancerous cells, MDA-MB-231 (inhibition of cell growth); for inhibition at 10 µM: Compound concentration: 10 μM
How it was run: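 Growth inhibition of human MDA-MB-231 breast cancer cells was assessed with a Cell Counting Kit-8. Cells cultured in DMEM plus 10% FBS were seeded at 2,000-5,000 cells/well, treated after attachment, and kept 72 h at 37° C. CCK-8 solution (10 μL) was added for 4 h, and absorbance at 450 nm was compared with DMSO-treated controls.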

HepG2 (liver cancer) = test: Antiproliferative activity (CCK-8 cell viability), HepG2; conditions: Homo sapiens, 72 h; for inhibition at 3.3 µM: Compound concentration: 3.3 μM; for inhibition at 3.3 µM / inhibition at 10 µM: read-out: Antiproliferative activity in cancerous cells, HepG2 (inhibition of cell growth); for inhibition at 10 µM: Compound concentration: 10 μM
How it was run: (§1)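 Growth inhibition graded in bands from percent viability against DMSO vehicle, read as CCK-8 absorbance at 450 nm. Compound tested at 3.3, 10 or 30 μM for 72 h, 37 °C; media contained 10% FBS: DMEM for HepG2/SW480, MEM for HeLa, F-12K for A549.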

SW480 (colon cancer) = test: Antiproliferative activity (CCK-8 cell viability), SW480; conditions: Homo sapiens, 72 h; for inhibition at 3.3 µM: Compound concentration: 3.3 μM; for inhibition at 3.3 µM / inhibition at 10 µM: read-out: Antiproliferative activity in cancerous cells, SW480 (inhibition of cell growth); for inhibition at 10 µM: Compound concentration: 10 μM; for inhibition at 30 µM: Compound concentration: 30 μM, read-out: Antiproliferative activity in cancerous cells, SW480
How it was run: as §1

[3] = test system: B16F10 (malignant melanoma); test: Antiproliferative activity (CCK-8 cell viability), B16F10; conditions: Mus musculus, 72 h, read-out: Antiproliferative activity in cancerous cells, B16F10 (inhibition of cell growth); for inhibition at 3.3 µM: B16-F10, Compound concentration: 3.3 μM; for inhibition at 10 µM: B16-F10, Compound concentration: 10 μM
How it was run: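 Cell growth inhibition was measured in B16F10 malignant melanoma cells with a Cell Counting Kit-8 viability assay. Cells were maintained in DMEM plus 10% fetal bovine serum, seeded at 2,000-5,000 cells/well in 96-well plates, and treated for 72 h at 37° C. Viability was expressed relative to DMSO-treated vehicle control wells.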

[4] = test system: A431 (epidermoid carcinoma); test: Antiproliferative activity (CCK-8 cell viability), A431; conditions: Homo sapiens, 72 h, read-out: Antiproliferative activity in cancerous cells, A431 (inhibition of cell growth); for inhibition at 3.3 µM: A-431, Compound concentration: 3.3 μM; for inhibition at 10 µM: A-431, Compound concentration: 10 μM
How it was run: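 This growth inhibition assay used A431 cells maintained in Dulbecco's modified Eagle's medium plus 10% fetal bovine serum. Cells were seeded in 96-well plates, treated with compound for 72 h at 37° C., and then given 10 μL CCK-8 solution. After a further 4 h, absorbance was read at 450 nm.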

[5] = test system: A549 (lung adenocarcinoma); test: Antiproliferative activity (CCK-8 cell viability), A549; conditions: Homo sapiens, 72 h; for inhibition at 3.3 µM: Compound concentration: 3.3 μM; for inhibition at 3.3 µM / inhibition at 10 µM: read-out: Antiproliferative activity in cancerous cells, A549 (inhibition of cell growth); for inhibition at 10 µM: Compound concentration: 10 μM
How it was run: as §1

HeLa (cervical cancer) = test: Antiproliferative activity (CCK-8 cell viability), HeLa; conditions: Homo sapiens, 72 h; for inhibition at 3.3 µM: Compound concentration: 3.3 μM; for inhibition at 3.3 µM / inhibition at 10 µM: read-out: Antiproliferative activity in cancerous cells, HELA (inhibition of cell growth); for inhibition at 10 µM: Compound concentration: 10 μM; for inhibition at 30 µM: Compound concentration: 30 μM, read-out: Antiproliferative activity in cancerous cells, HELA
How it was run: as §1

SMILES	inhibition at 10 µM [1]	inhibition at 3.3 µM [2]	inhibition at 10 µM [2]	inhibition at 3.3 µM (HepG2 (liver cancer))	inhibition at 10 µM (HepG2 (liver cancer))	inhibition at 3.3 µM (SW480 (colon cancer))	inhibition at 10 µM (SW480 (colon cancer))	inhibition at 3.3 µM [3]	inhibition at 10 µM [3]	inhibition at 3.3 µM [4]	inhibition at 10 µM [4]	inhibition at 3.3 µM [5]	inhibition at 10 µM [5]	inhibition at 3.3 µM (HeLa (cervical cancer))	inhibition at 10 µM (HeLa (cervical cancer))	inhibition at 30 µM (SW480 (colon cancer))	inhibition at 30 µM (HeLa (cervical cancer))	inhibition at 30 µM ([2]; Compound concentration: 30 μM, read-out: Antiproliferative activity in cancerous cells, MDA-MB-231)	inhibition at 30 µM (HepG2 (liver cancer); Compound concentration: 30 μM, read-out: Antiproliferative activity in cancerous cells, HepG2)	inhibition at 30 µM ([5]; Compound concentration: 30 μM, read-out: Antiproliferative activity in cancerous cells, A549)
COc1ccc2c(c1)/C(=C\c1ccc(Oc3ccc(F)cc3)cc1)C(C)=C2CC(=O)O [C1, (Z)-2-(1-(4-(4-Fluorophenoxy)benzylidene)-6-methoxy-2-methyl-1H-inden-3-yl)-acetic acid]	> 80%	≥ 50%	≥ 50%	< 30%	< 30%	≥ 50%	≥ 50%	30 to 50%	≥ 50%	30 to 50%	≥ 50%	< 30%	< 30%	≥ 50%	≥ 50%					
COc1ccc2c(c1)/C(=C\c1ccc(Oc3ccc(F)cc3)cc1)C=C2CC(=O)O [C2, (Z)-2-(1-(4-(4-Fluorophenoxy)benzylidene)-6-methoxy-1H-inden-3-yl)acetic acid]	> 80%	≥ 50%	≥ 50%	30 to 50%	30 to 50%	≥ 50%	30 to 50%	< 30%	≥ 50%	30 to 50%	≥ 50%	< 30%	< 30%	30 to 50%	≥ 50%					
CC1=C(CC(=O)O)c2ccc(F)cc2/C1=C\c1ccc(Oc2ccc(F)cc2)cc1 [C3, (Z)-2-(6-Fluoro-1-(4-(4-fluorophenoxy)benzylidene)-2-methyl-1H-inden-3-yl)-acetic acid]	< 30%	< 30%	30 to 50%	≥ 50%	≥ 50%	< 30%	< 30%	< 30%	30 to 50%	≥ 50%	≥ 50%	30 to 50%	30 to 50%	< 30%	< 30%	< 30%	< 30%			
CC1=C(CC(=O)O)c2cc(C)ccc2/C1=C\c1ccc(Oc2ccc(F)cc2)cc1 [C4, (Z)-2-(1-(4-(4-Fluorophenoxy)benzylidene)-2,5-dimethyl-1H-inden-3-yl)acetic acid]	> 80%	< 30%	30 to 50%	30 to 50%	≥ 50%	< 30%	< 30%	< 30%	< 30%	< 30%	30 to 50%	< 30%	30 to 50%	< 30%	≥ 50%	30 to 50%				
CCc1ccc2c(c1)C(CC(=O)O)=C(C)/C2=C/c1ccc(Oc2ccc(F)cc2)cc1 [C5, (Z)-2-(5-Ethyl-1-(4-(4-fluorophenoxy)benzylidene)-2-methyl-1H-inden-3-yl)-acetic acid]	> 80%	< 30%	≥ 50%	≥ 50%	≥ 50%	< 30%	< 30%	< 30%	≥ 50%	≥ 50%	≥ 50%	30 to 50%	30 to 50%	< 30%	≥ 50%					
CCC1=C(CC(=O)O)c2cc(F)ccc2/C1=C\c1ccc(Oc2ccc(F)cc2)cc1 [C6, (Z)-2-(2-Ethyl-5-fluoro-1-(4-(4-fluorophenoxy)benzylidene)-1H-inden-3-yl)acetic acid]	> 80%	≥ 50%	≥ 50%	< 30%	30 to 50%	≥ 50%	≥ 50%	30 to 50%	≥ 50%	30 to 50%	≥ 50%	30 to 50%	≥ 50%	≥ 50%	≥ 50%					
O=C(O)CC1=C(CC2CCCC2)/C(=C/c2ccc(Oc3ccc(F)cc3)cc2)c2ccc(F)cc21 [C7, (Z)-2-(2-(Cyclopentylmethyl)-5-fluoro-1-(4-(4-fluorophenoxy)benzylidene)-1H-inden-3-yl)acetic acid]	> 80%	≥ 50%	≥ 50%	30 to 50%	≥ 50%	≥ 50%	≥ 50%	≥ 50%	≥ 50%	≥ 50%	≥ 50%	≥ 50%	≥ 50%	≥ 50%	≥ 50%					
CCCC1=C(CC(=O)O)c2cc(F)ccc2/C1=C\c1ccc(Oc2ccc(F)cc2)cc1 [C8, (Z)-2-(5-Fluoro-1-(4-(4-fluorophenoxy)benzylidene)-2-propyl-1H-inden-3-yl)-acetic acid]	> 80%	≥ 50%	≥ 50%	≥ 50%	≥ 50%	< 30%	≥ 50%	30 to 50%	≥ 50%	< 30%	≥ 50%	≥ 50%	≥ 50%	≥ 50%	≥ 50%					
CC1=C(CC(=O)O)c2c(F)cccc2/C1=C\c1ccc(Oc2ccc(F)cc2)cc1 [C9, (Z)-2-(4-Fluoro-1-(4-(4-fluorophenoxy)benzylidene)-2-methyl-1H-inden-3-yl)-acetic acid]	< 30%	30 to 50%	30 to 50%	30 to 50%	< 30%	< 30%	< 30%	≥ 50%	≥ 50%	30 to 50%	30 to 50%	< 30%	< 30%	< 30%	< 30%	< 30%	< 30%	30 to 50%	30 to 50%	< 30%

From US20260184663A1, “INDENE COMPOUNDS, PHARMACEUTICAL COMPOSITIONS THEREOF, AND THEIR THERAPEUTIC APPLICATIONS” (NucMito Pharmaceuticals co. Ltd., priority 2022, published 2026)
